Data published in PMC5129256 (International Journal of Environmental Research and Public …, 2016).
“And” between values parts separate entries of the source, which are not always exact repeats. Equal values may be shown once. Read-outs that look alike come from different tables or passages of the source.

How the values were obtained:
in vitro = details: chicken, Viability of LMH Cells (%) ± SD, MTT
LMH cells [1] = test system: LMH cells
human skin fibroblasts = details: MTS assay; cited from earlier work
[2] = test system: human adenocarcinoma cell line HT-29; set-up: method as in PMID 14642818; details: HT-29, 20 mM (or 0.04%); cited from earlier work
LMH cells [3] = details: PrestoBlue; for Viability of LMH Cells (%) ±S.E.M.: 24 h; for IC50 (%): 24 h exposure, from dose-response curves
laboratory mice = details: mouse, in vivo; cited from earlier work
workers = test system: workers; set-up: method as in ref 23 = [23]; 23. The MAK Collection for Occupational Health and Safety, Trimethylamine (MAK Value Documentation, 2004), Wiley Online Library Available online: http://onlinelibrary.wiley.com/doi/10.1002/3527600418.; details: cited from earlier work
[4] = test system: human colon adenocarcinoma cell line Caco-2; set-up: method as in ref 39 = [39]; 39. Olejnik A. Schmidt M. Wojnarowska K. Grajek W. The influence of toxic digestive metabolites on the proliferation and DNA damage of epithelial intestinal cells in vitro Food Sci. Technol. Qual. 200; details: Caco-2, concentrations as low as 10^-6 M; cited from earlier work
[5] = MTT, 72 h exposure, from dose-response curves
[6] = MTT, 24 h exposure, from dose-response curves
[7] = MTT, 48 h exposure, from dose-response curves

## c1ccc2[nH]ccc2c1 [Indole]
In vitro; 0.0004%, 24 h
  viability: 88.6 ± 0.6%
In vitro; 0.0004%, 72 h
  viability: 90.7 ± 1.3%
In vitro; 0.0008%, 24 h
  viability: 95 ± 0.2%
In vitro; 0.0008%, 72 h
  viability: 94.3 ± 2.4%
In vitro; 0.0016%, 24 h
  viability: 97.4 ± 0.2%
In vitro; 0.0016%, 72 h
  viability: 94.8 ± 2.1%
In vitro; 0.0063%, 24 h
  viability: 103 ± 0.4%
In vitro; 0.0063%, 72 h
  viability: 109 ± 2.5%
In vitro; 0.0125%, 24 h
  viability: 95.5 ± 0.8%
In vitro; 0.0125%, 72 h
  viability: 103 ± 1.2%
In vitro; 0.025%, 24 h
  viability: 102.4 ± 0.2%
In vitro; 0.025%, 72 h
  viability: 73.5 ± 2%
In vitro; 0.05%, 24 h
  viability: 94.3 ± 0.6%
In vitro; 0.05%, 72 h
  viability: 73 ± 1.7%
In vitro; 0.1%, 24 h
  viability: 82.2 ± 0.2%
In vitro; 0.1%, 72 h
  viability: 60.3 ± 1.6%
In vitro; […], 24 h
  viability: 100 ± 0.4%
In vitro; […], 72 h
  viability: 104 ± 1.9%
LMH cells [1]
  cytotoxicity (in words): not cytotoxic
LMH cells [1]; [5]
  IC50 (%): 0.06%
LMH cells [1]; chicken
  cytotoxicity: 39.7%

## N [Ammonium]
Human skin fibroblasts
  IC50: 9.4 mM
[2]
  effect on proliferation: almost suppressed proliferation
LMH cells [1]; MTT, 0.004%, 24 h
  Viability of LMH Cells (%) ± SD: 97.6 ± 4.3%
LMH cells [1]; MTT, 0.004%, 48 h
  Viability of LMH Cells (%) ± SD: 95.6 ± 2.9%
LMH cells [1]; MTT, 0.004%, 72 h
  Viability of LMH Cells (%) ± SD: 101.9 ± 5.0%
LMH cells [1]; MTT, 0.008%, 24 h
  Viability of LMH Cells (%) ± SD: 98.0 ± 3.0%
LMH cells [1]; MTT, 0.008%, 48 h
  Viability of LMH Cells (%) ± SD: 96.8 ± 1.3%
LMH cells [1]; MTT, 0.008%, 72 h
  Viability of LMH Cells (%) ± SD: 104.8 ± 2.6%
LMH cells [1]; MTT, 0.016%, 24 h
  Viability of LMH Cells (%) ± SD: 93.3 ± 2.8%
LMH cells [1]; MTT, 0.016%, 48 h
  Viability of LMH Cells (%) ± SD: 81.4 ± 5.2 %
LMH cells [1]; MTT, 0.063%, 24 h
  Viability of LMH Cells (%) ± SD: 61.9 ± 2.0 %
LMH cells [1]; MTT, 0.063%, 48 h
  Viability of LMH Cells (%) ± SD: 28.3 ± 1.3 %
LMH cells [1]; MTT, 0.063%, 72 h
  Viability of LMH Cells (%) ± SD: 13.8 ± 1.2 %
LMH cells [1]; MTT, 0.125%, 24 h
  Viability of LMH Cells (%) ± SD: 18.1 ± 0.8 %
LMH cells [1]; MTT, 0.125%, 48 h
  Viability of LMH Cells (%) ± SD: 7.1 ± 0.8 %
LMH cells [1]; MTT, 0.125%, 72 h
  Viability of LMH Cells (%) ± SD: 10.0 ± 1.3 %
LMH cells [1]; MTT, 0.25%, 24 h
  Viability of LMH Cells (%) ± SD: 5.4 ± 0.1 %
LMH cells [1]; MTT, 0.25%, 48 h
  Viability of LMH Cells (%) ± SD: 1.6 ± 0.2 %
LMH cells [1]; MTT, 0.25%, 72 h
  Viability of LMH Cells (%) ± SD: 2.9 ± 0.1 %
LMH cells [1]; MTT, 0.5%, 24 h
  Viability of LMH Cells (%) ± SD: 5.9 ± 0.2 %
LMH cells [1]; MTT, 0.5%, 48 h
  Viability of LMH Cells (%) ± SD: 2.1 ± 0.2 %
LMH cells [1]; MTT, 0.5%, 72 h
  Viability of LMH Cells (%) ± SD: 2.8 ± 0.2 %
LMH cells [1]; MTT, 1.0%, 24 h
  Viability of LMH Cells (%) ± SD: 13.1 ± 0.1 %
LMH cells [1]; MTT, 1.0%, 48 h
  Viability of LMH Cells (%) ± SD: 1.7 ± 0.2 %
LMH cells [1]; MTT, 1.0%, 72 h
  Viability of LMH Cells (%) ± SD: 5.8 ± 0.1 %
LMH cells [1]; [6]
  IC50 (%): 0.08%
LMH cells [1]; [7]
  IC50 (%): 0.04%
LMH cells [1]; [5]
  IC50 (%): 0.02%
LMH cells [1]; MTT, […], 24 h
  Viability of LMH Cells (%) ± SD: 96.4 ± 1.2%
LMH cells [1]; MTT, […], 48 h
  Viability of LMH Cells (%) ± SD: 65.5 ± 4.0 %
LMH cells [1]; MTT, […], 72 h
  Viability of LMH Cells (%) ± SD: 31.6 ± 2.1 %
LMH cells [3]; 0.004%
  Viability of LMH Cells (%) ±S.E.M.: 99.7 ± 5.8%
LMH cells [3]; 0.008%
  Viability of LMH Cells (%) ±S.E.M.: 99.0 ± 10.1%
LMH cells [3]; 0.016%
  Viability of LMH Cells (%) ±S.E.M.: 100.2 ± 8.1%
LMH cells [3]; 0.063%
  Viability of LMH Cells (%) ±S.E.M.: 51.1 ± 7.1 %
LMH cells [3]; 0.125%
  Viability of LMH Cells (%) ±S.E.M.: 24.6 ± 6.3 %
LMH cells [3]; 0.25%
  Viability of LMH Cells (%) ±S.E.M.: 5.7 ± 1.1 %
LMH cells [3]; 0.5%
  Viability of LMH Cells (%) ±S.E.M.: 4.6 ± 0.6 %
LMH cells [3]; 1.0%
  Viability of LMH Cells (%) ±S.E.M.: 4.7 ± 0.7 %
LMH cells [3]
  IC50 (%): 0.07%
LMH cells [3]; […]
  Viability of LMH Cells (%) ±S.E.M.: 99.1 ± 4.9%

## CCCC(=O)O [Butyric acid]
In vitro; LMH chicken liver hepatocellular carcinoma cells, 0.006%, 24 h
  viability at 24 h, 0.006 %: 100 ± 0.7%
In vitro; LMH chicken liver hepatocellular carcinoma cells, 0.006%, 72 h
  viability at 72 h, 0.006 %: 98.2 ± 2.1%
In vitro; LMH chicken liver hepatocellular carcinoma cells, 0.013%, 24 h
  viability at 24 h, 0.013 %: 100 ± 0.4%
In vitro; LMH chicken liver hepatocellular carcinoma cells, 0.013%, 72 h
  viability at 72 h, 0.013 %: 95.7 ± 2.1%
In vitro; LMH chicken liver hepatocellular carcinoma cells, 0.025%, 24 h
  viability at 24 h, 0.025 %: 100 ± 0.3%
In vitro; LMH chicken liver hepatocellular carcinoma cells, 0.025%, 72 h
  viability at 72 h, 0.025 %: 86 ± 4.8%
In vitro; LMH chicken liver hepatocellular carcinoma cells, 0.063%, 24 h
  viability at 24 h, 0.063 %: 68.9 ± 1.4%
In vitro; LMH chicken liver hepatocellular carcinoma cells, 0.063%, 72 h
  viability at 72 h, 0.063 %: 66.5 ± 3.2%
In vitro; LMH chicken liver hepatocellular carcinoma cells, 0.125%, 24 h
  viability at 24 h, 0.125 %: 65 ± 0.8%
In vitro; LMH chicken liver hepatocellular carcinoma cells, 0.125%, 72 h
  viability at 72 h, 0.125 %: 46.4 ± 3.2%
In vitro; LMH chicken liver hepatocellular carcinoma cells, 0.25%, 24 h
  viability at 24 h, 0.25 %: 59.4 ± 1.3%
In vitro; LMH chicken liver hepatocellular carcinoma cells, 0.25%, 72 h
  viability at 72 h, 0.25 %: 31.1 ± 2%
In vitro; LMH chicken liver hepatocellular carcinoma cells, 0.5%, 24 h
  viability at 24 h, 0.5 %: 25.1 ± 0.7%
In vitro; LMH chicken liver hepatocellular carcinoma cells, 0.5%, 72 h
  viability at 72 h, 0.5 %: 7.6 ± 0.7%
In vitro; LMH chicken liver hepatocellular carcinoma cells, […], 24 h
  viability at 24 h, […]: 89.3 ± 2%
In vitro; LMH chicken liver hepatocellular carcinoma cells, […], 72 h
  viability at 72 h, […]: 67.2 ± 4.9%
LMH cells [1]
  IC50 (%): 0.32% and 0.11%
LMH cells [1]; MTT, 0.5%, 72 h
  cytotoxicity: 92.4%
LMH cells [1]; MTT, 72 h exposure, concentrations above 0.0125%
  dose-dependent inhibition reached: 92%

## CNC [Dimethylamine]
Laboratory mice
  RD50 (concentration which reduces the rate of respiration by 50%): 70 mL/m^3
LMH cells [1]
  IC50 (%): 0.06%
  IC80: 0.04% and 0.04 * %
  Viability of LMH Cells (%) ± SD: 20.5 ± 0.1 %
  cytotoxicity: above 80%

## CN(C)C [Trimethylamine]
Laboratory mice
  RD50: 61 mL/m^3
workers; concentrations of 20 mL/m^3
  toxic effects in workers: irritant to the mucous membranes and the eyes
workers; mean exposure concentrations of 5 mL/m^3 for 8 h
  toxic effects in workers: no toxic effects
LMH cells [1]
  cytotoxicity: above 95%
LMH cells [1]; MTT, 0.004%, 24 h
  Viability of LMH Cells (%) ± SD: 95.5 ± 1.9%
LMH cells [1]; MTT, 0.004%, 48 h
  Viability of LMH Cells (%) ± SD: 92.5 ± 5.5%
LMH cells [1]; MTT, 0.008%, 24 h
  Viability of LMH Cells (%) ± SD: 100.1 ± 3.1%
LMH cells [1]; MTT, 0.008%, 48 h
  Viability of LMH Cells (%) ± SD: 84.9 ± 8.1%
LMH cells [1]; MTT, 0.016%, 24 h
  Viability of LMH Cells (%) ± SD: 103.6 ± 2.2%
LMH cells [1]; MTT, 0.016%, 48 h
  Viability of LMH Cells (%) ± SD: 72.8 ± 6.5 %
LMH cells [1]; MTT, 0.063%, 24 h
  Viability of LMH Cells (%) ± SD: 69.7 ± 5.9 %
LMH cells [1]; MTT, 0.063%, 48 h
  Viability of LMH Cells (%) ± SD: 2.8 ± 0.2 %
LMH cells [1]; MTT, 0.125%, 24 h
  Viability of LMH Cells (%) ± SD: 8.6 ± 0.5 %
LMH cells [1]; MTT, 0.125%, 48 h
  Viability of LMH Cells (%) ± SD: 5.4 ± 0.3 %
LMH cells [1]; MTT, 0.25%, 24 h
  Viability of LMH Cells (%) ± SD: 7.6 ± 0.3 %
LMH cells [1]; MTT, 0.25%, 48 h
  Viability of LMH Cells (%) ± SD: 4.1 ± 0.3 %
LMH cells [1]; MTT, 0.5%, 24 h
  Viability of LMH Cells (%) ± SD: 7.9 ± 0.2 %
LMH cells [1]; MTT, 0.5%, 48 h
  Viability of LMH Cells (%) ± SD: 3.8 ± 0.3 %
LMH cells [1]; MTT, 1.0%, 24 h
  Viability of LMH Cells (%) ± SD: 7.0 ± 0.1 %
LMH cells [1]; MTT, 1.0%, 48 h
  Viability of LMH Cells (%) ± SD: 2.5 ± 0.3 %
LMH cells [1]; [6]
  IC50 (%): 0.08%
LMH cells [1]; [7]
  IC50 (%): 0.04%
LMH cells [1]; MTT, […], 24 h
  Viability of LMH Cells (%) ± SD: 97.8 ± 1.8%
LMH cells [1]; MTT, […], 48 h
  Viability of LMH Cells (%) ± SD: 61.7 ± 8.9 %
LMH cells [3]; 0.004%
  Viability of LMH Cells (%) ±S.E.M.: 72.4 ± 5.4%
LMH cells [3]; 0.008%
  Viability of LMH Cells (%) ±S.E.M.: 54.3 ± 10.9%
LMH cells [3]; 0.016%
  Viability of LMH Cells (%) ±S.E.M.: 51.9 ± 2.9%
LMH cells [3]; 0.063%
  Viability of LMH Cells (%) ±S.E.M.: 36.6 ± 2.4%
LMH cells [3]; 0.125%
  Viability of LMH Cells (%) ±S.E.M.: 17.1 ± 2.3 %
LMH cells [3]; 0.25%
  Viability of LMH Cells (%) ±S.E.M.: 13.6 ± 2.3 %
LMH cells [3]; 0.5%
  Viability of LMH Cells (%) ±S.E.M.: 7.1 ± 0.4 %
LMH cells [3]; 1.0%
  Viability of LMH Cells (%) ±S.E.M.: 6.0 ± 0.3 %
LMH cells [3]
  IC50 (%): 0.02%
LMH cells [3]; […]
  Viability of LMH Cells (%) ±S.E.M.: 38.9 ± 9.6%

## Oc1ccccc1 [Phenol]
Laboratory mice
  concentration reducing the respiratory rate by 50%: 166 ppm
[4]
  cell proliferation and cell survival: 56%
LMH cells [1]
  cytotoxicity (in words): not cytotoxic
LMH cells [1]; chicken
  cytotoxicity: 85.5%
